Measured values taken from the NIST ThermoML archive (doi:10.1021/acs.jced.7b00344).

Experiment: xn = mol fraction of the nth substance listed
Settings: 101.3 kPa, Liquid; for viscosity: Capillary tube (Ostwald / Ubbelohde) method; for mass density: Pycnometric method

CC(=O)CCCCl [1-chloro-4-pentanone] + CC(=O)C1CC1
Settings	mass density, 303.15 K [kg/m3]	mass density, 313.15 K [kg/m3]	mass density, 323.15 K [kg/m3]	mass density, 333.15 K [kg/m3]	viscosity, 303.15 K [mPa·s]	viscosity, 313.15 K [mPa·s]	viscosity, 323.15 K [mPa·s]	viscosity, 333.15 K [mPa·s]
x2 = 0	1051.3	1041.1	1031.2	1020.8	1.582	1.318	1.078	0.9667
x2 = 0.0998	1039.1	1029.1	1019.4	1009.3	1.427	1.21	1.03	0.8933
x2 = 0.2009	1026.1	1016.3	1006.7	996.8	1.223	1.043	0.9043	0.7927
x2 = 0.3004	1012.5	1002.9	993.4	983.6	1.135	0.9766	0.8507	0.7484
x2 = 0.4002	998	988.5	979.1	969.5	1.07	0.9252	0.8063	0.7131
x2 = 0.4999	982.8	973.3	963.9	954.4	0.955	0.8296	0.7322	0.6517
x2 = 0.5999	966.5	957.1	947.7	938.3	0.8757	0.7715	0.6787	0.6086
x2 = 0.6999	948.9	939.7	930.4	921.1	0.839	0.7366	0.649	0.5818
x2 = 0.7999	930.2	921	911.7	902.6	0.7363	0.6493	0.5783	0.5207
x2 = 0.8999	910.5	901.1	891.6	882.4	0.7027	0.6216	0.5513	0.4968

CC(=O)C1CCOC1=O (stereo not given) [2-acetylbutyrolactone] + CC(=O)C1CC1
Settings	mass density, 303.15 K [kg/m3]	mass density, 313.15 K [kg/m3]	mass density, 323.15 K [kg/m3]	mass density, 333.15 K [kg/m3]	viscosity, 303.15 K [mPa·s]	viscosity, 313.15 K [mPa·s]	viscosity, 323.15 K [mPa·s]	viscosity, 333.15 K [mPa·s]
x2 = 0	1185.7	1178.3	1168.9	1159.4	3.794	3.424	3.067	2.719
x2 = 0.0998	1161.9	1154.3	1144.9	1135.6	3.195	2.889	2.609	2.33
x2 = 0.2009	1136.2	1128.5	1119.1	1109.7	2.633	2.369	2.118	1.892
x2 = 0.3004	1109.7	1101.8	1092.3	1082.9	2.164	1.945	1.748	1.571
x2 = 0.4002	1081.9	1073.7	1064.2	1054.8	1.786	1.599	1.415	1.278
x2 = 0.4999	1052.8	1044.3	1034.8	1025.4	1.452	1.306	1.154	1.025
x2 = 0.5999	1022.5	1013.8	1004.2	994.8	1.198	1.054	0.9344	0.8398
x2 = 0.6999	991.1	982.1	972.4	963.1	0.9813	0.8642	0.778	0.6958
x2 = 0.7999	958.3	949.2	939.6	930.2	0.783	0.6912	0.639	0.5704
x2 = 0.8999	924.5	915.5	905.9	896.5	0.6546	0.5854	0.5436	0.4933
